Experimental data reported in PubChem BioAssay (NCI).
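96-well plates; 48 h exposure; 5 concentrations. Endpoints by linear interpolation between flanking doses. Not reached: highest tested concentration assigned. At the GI50, growth is halved. At the TGI there is no net growth.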

Assays:
Experiment in all cases: inhibition of tumour cell growth, NCI panel, 48 h
[1] = tested on: A549 NSCLC
[2] = tested on: OVCAR-5 ovarian
[3] = tested on: CCRF-CEM leukemia
[4] = tested on: MDA-MB-231 breast
[5] = tested on: COLO 205 colon
[6] = tested on: 786-0 renal
[7] = tested on: UACC-257 melanoma
[8] = tested on: MOLT-4 leukemia

SMILES	TGI [1]	TGI [2]	TGI [3]	TGI [4]	TGI [5]	TGI [6]	TGI [7]	TGI [8]	GI50 [1]	GI50 [2]	GI50 [3]	GI50 [4]	GI50 [5]	GI50 [6]	GI50 [7]	GI50 [8]
Cc1ccc(C)c2c(N=Nc3ccccc3[N+](=O)[O-])c(O)[nH]c12	> 100 µM	> 100 µM	> 100 µM	> 100 µM	> 100 µM	> 100 µM	> 100 µM	> 100 µM	–	–	–	–	–	–	–	–
NCCN1C(=O)c2ccccc2C1(O)c1ccc(Cl)cc1 (configuration not stated)	67.3 µM	39.8 µM	57 µM	34.7 µM	39.4 µM	30.9 µM	31.8 µM	38.8 µM	–	–	–	–	–	–	–	–
COc1cc(NC(C)CCCN)c2ncccc2c1Sc1ccc(Cl)cc1 (configuration not stated)	3.01 µM	3.28 µM	4.96 µM	2.86 µM	3.03 µM	3.57 µM	3.15 µM	4.16 µM	1.65 µM	1.73 µM	1.77 µM	1.42 µM	1.67 µM	1.89 µM	1.63 µM	1.84 µM
Cn1c2ccccc2c2nnc(NNCc3ccccn3)nc21	16.4 µM	15.3 µM	12.7 µM	18 µM	11.4 µM	4.51 µM	11.1 µM	12.6 µM	0.414 µM	1.01 µM	0.357 µM	1.03 µM	0.476 µM	0.327 µM	0.641 µM	0.38 µM
CC(=O)c1cccc(NC(=O)c2ccc(NC3=C(Cl)C(=O)N(Cc4ccccc4)C3=O)cc2)c1	> 100 µM	> 100 µM	–	38.3 µM	> 100 µM	36.4 µM	72.4 µM	> 100 µM	25.8 µM	> 100 µM	–	15 µM	29.2 µM	16.5 µM	18.7 µM	2.21 µM
COc1ccc(C(=O)OC2C(OC3C(O)COC(O[C@H]4C[C@H]5[C@@H]6CC=C7C[C@@H](O)CC[C@]7(C)[C@H]6CC[C@]5(C)[C@H]4[C@H](C)C(=O)CCC(C)C)C3OC(C)=O)OCC(O)C2O)cc1 (some centres not stated)	9.95 µM	1.63 µM	–	4.55 µM	0.0194 µM	0.441 µM	0.0072 µM	< 0.003 µM	< 0.003 µM	0.00601 µM	–	0.0313 µM	< 0.003 µM	< 0.003 µM	< 0.003 µM	< 0.003 µM
CCN(CC)c1ccc(/C=C/C=C(/C#N)C(N)=S)cc1	> 100 µM	> 100 µM	71.8 µM	6.03 µM	> 100 µM	8.69 µM	34.4 µM	12 µM	5.94 µM	4.83 µM	3.16 µM	2.11 µM	7.13 µM	2.76 µM	5.05 µM	2.19 µM
CC/C=C\C[C@H](O)C/C=C1/C(=O)C=C[C@@H]1C/C=C\CCCC(=O)NC	6.81 µM	4.27 µM	8.13 µM	14.1 µM	3.93 µM	3.6 µM	5.32 µM	11.3 µM	2.55 µM	2 µM	1.47 µM	4.24 µM	1.71 µM	1.81 µM	2.08 µM	2.4 µM
Cc1cc(O)cc(C)c1/C=C/c1cncc(C(=O)OC(C)(C)C)c1	> 25 µM	> 25 µM	> 25 µM	> 25 µM	> 25 µM	> 25 µM	> 25 µM	> 25 µM	9.23 µM	> 25 µM	3.13 µM	14 µM	> 25 µM	19.1 µM	19.6 µM	15 µM
CC(C)(C)OC(=O)NCCCCCCCCCCn1c2c(c3ccccc3c1=O)C(=O)c1ccccc1-2	> 100 µM	> 100 µM	> 100 µM	85.9 µM	> 100 µM	> 100 µM	> 100 µM	31.2 µM	> 100 µM	> 100 µM	20 µM	17.9 µM	> 100 µM	20.2 µM	> 100 µM	16.2 µM
CC(=O)c1ccc2c(c1)N(CCCN(C)C)c1ccccc1S2	34.2 µM	27.9 µM	47.3 µM	24.8 µM	11.7 µM	25 µM	37.8 µM	41.2 µM	17.7 µM	13.9 µM	18.5 µM	11.1 µM	3.32 µM	12 µM	18.7 µM	16.8 µM
COc1ccc(/C(=N/O)c2cc(OC)c(OC)c(OC)c2)c(OC)c1N	> 100 µM	–	> 100 µM	> 100 µM	13.5 µM	> 100 µM	–	> 100 µM	8.21 µM	–	4.09 µM	5.36 µM	3 µM	12.7 µM	–	6.94 µM
COc1ccc(Oc2cc(NCCC(F)(F)F)c3ncc(-c4ccc(C(=O)NC5CC5)c(C)c4)n3n2)c(F)c1F	> 59.2 µM	> 100 µM	> 100 µM	> 100 µM	50.7 µM	> 52.3 µM	59.5 µM	> 100 µM	0.902 µM	24.9 µM	–	2.16 µM	< 0.0215 µM	1.05 µM	9.26 µM	2.03 µM
COc1cc2c(cc1O)C(c1cc(O)c(O)c(OC)c1)C(O)(C(=O)O)C(CO)C2O (configuration not stated)	> 100 µM	> 100 µM	22.7 µM	> 100 µM	> 100 µM	30.5 µM	> 100 µM	44.3 µM	–	–	–	–	–	–	–	–
COC(=O)/C(=C\c1c(-c2ccccc2)[nH]c2ccccc12)S(C)(=O)=O	98.4 µM	49.8 µM	> 100 µM	17.7 µM	18.5 µM	23.9 µM	25.9 µM	> 100 µM	5.26 µM	19.6 µM	7.62 µM	2.39 µM	4.39 µM	7.46 µM	11.2 µM	4.72 µM
Oc1c2c(c(O)c3ccccc13)C1(N=N2)c2ccccc2Oc2ccccc21	66.5 µM	26.5 µM	29.9 µM	32.4 µM	28 µM	11.5 µM	19.1 µM	> 100 µM	–	–	–	–	–	–	–	–
COc1ccc(-c2nc(-c3nc4ccc(C(F)(F)F)cc4[nH]3)c3ccccn23)cc1	> 100 µM	> 100 µM	> 100 µM	> 100 µM	> 100 µM	> 100 µM	> 100 µM	> 100 µM	28.5 µM	> 100 µM	7.4 µM	50.6 µM	> 100 µM	> 100 µM	> 100 µM	2.81 µM

SMILES	TGI [1]	TGI [2]	TGI [3]	TGI [4]	TGI [5]	TGI [6]	TGI [7]	TGI [8]	GI50 [1]	GI50 [2]	GI50 [3]	GI50 [4]	GI50 [5]	GI50 [6]	GI50 [7]	GI50 [8]
FC(F)(F)c1[nH]ncc1-c1nc2ccc3[nH]ncc3c2c2c1CCCC2	8.45 µM	13.1 µM	10.7 µM	6.19 µM	4.08 µM	4.08 µM	8.69 µM	5.29 µM	1.77 µM	2.51 µM	2.15 µM	1.84 µM	1.54 µM	1.55 µM	2.67 µM	1.29 µM
N#C/C(=C\c1cccc2cnccc12)N1N=NC2C=CC=CC21 (configuration not stated)	> 100 µM	> 100 µM	–	8.05 µM	> 100 µM	> 100 µM	> 100 µM	> 100 µM	3.02 µM	4.66 µM	–	1.94 µM	3.48 µM	3.33 µM	4.54 µM	3.21 µM
O=Nc1c(O)c2ccccc2c2ccccc12	3.13 µM	4.53 µM	> 100 µM	5.25 µM	3.46 µM	7.04 µM	1.75 µM	> 100 µM	1.63 µM	1.94 µM	1.25 µM	0.849 µM	1.92 µM	2.84 µM	0.476 µM	2.13 µM
CNCCCn1c2c(c3ccc(F)cc3c1=O)C(=O)c1cc(OC)cnc1-2	0.288 µM	1.87 µM	10.6 µM	2.38 µM	1.14 µM	0.658 µM	1.9 µM	0.318 µM	0.105 µM	0.352 µM	0.255 µM	0.7 µM	0.0722 µM	0.195 µM	0.485 µM	0.0379 µM
Oc1c(CNCCNCc2cc(Cl)cc(Cc3ccccc3)c2O)cc(Cl)cc1Cc1ccccc1	> 100 µM	> 100 µM	24.4 µM	25 µM	1.53 µM	10.4 µM	16.6 µM	> 100 µM	0.469 µM	1.2 µM	0.127 µM	0.73 µM	0.309 µM	0.375 µM	2.12 µM	0.342 µM
CCN(Cc1cccc(F)c1F)c1ccc(CO)c(Cl)c1	24.2 µM	0.228 µM	69.1 µM	36.1 µM	7.59 µM	32.2 µM	0.326 µM	49.9 µM	1.54 µM	0.058 µM	20.1 µM	16.1 µM	2.47 µM	13.6 µM	0.0896 µM	19.8 µM
NC(CO)C(=O)NCC(=O)O (configuration not stated)	> 100 µM	> 100 µM	> 100 µM	> 100 µM	> 100 µM	> 100 µM	> 100 µM	> 100 µM	–	–	–	–	–	–	–	–
CC(=O)NC1=C(Sc2ccc(Cl)cc2)C(=O)c2ccccc2C1=O	> 100 µM	23.9 µM	4.64 µM	10.2 µM	3.6 µM	4.16 µM	17.3 µM	1.7 µM	–	–	–	–	–	–	–	–
CSc1nc(N)c2c(n1)NC(c1ccccc1)C1CCc3ccccc3C1=N2 (configuration not stated)	> 100 µM	> 100 µM	> 100 µM	> 100 µM	> 100 µM	> 100 µM	> 100 µM	38.8 µM	> 100 µM	> 100 µM	3.33 µM	> 100 µM	25.8 µM	> 100 µM	> 100 µM	1.85 µM
Clc1ccc(N2CCC(N3CCCC3)CC2)cc1-c1nc2ccccc2[nH]1	> 84.4 µM	> 69.4 µM	79.4 µM	32.5 µM	30.8 µM	28.7 µM	32.9 µM	67.7 µM	27.2 µM	26.5 µM	25.9 µM	17.1 µM	16 µM	14.7 µM	17 µM	23.2 µM
C#CC(=O)OCC#CCOC(=O)C#C	> 100 µM	–	35.4 µM	75.6 µM	32.4 µM	31.4 µM	> 100 µM	–	–	–	–	–	–	–	–	–
CN(C)CCNc1nc2ccccc2c2occc12	> 100 µM	88.4 µM	> 100 µM	77.6 µM	> 100 µM	> 100 µM	68.2 µM	> 100 µM	44.7 µM	37.2 µM	20.9 µM	23.7 µM	25.2 µM	62 µM	28.9 µM	20.3 µM
Nc1cc2nc3ccccc3oc-2cc1=O	3.84 µM	5.79 µM	> 64.9 µM	> 100 µM	3.42 µM	> 83.4 µM	6.68 µM	> 63.2 µM	1.66 µM	2.41 µM	13.4 µM	22.9 µM	1.82 µM	20.7 µM	2.35 µM	10.1 µM
O=S(=O)(NCCO)c1cc[c]([Sb](=[O])([OH])[OH])cc1	> 100 µM	> 100 µM	–	> 100 µM	–	> 100 µM	> 100 µM	> 100 µM	> 100 µM	> 100 µM	–	> 100 µM	–	> 100 µM	> 100 µM	> 100 µM
CC12CCC(O)CC1=CCC1C2CCC2(C)C(c3cccnc3)=CCC12 (configuration not stated)	> 100 µM	> 100 µM	> 100 µM	> 100 µM	> 100 µM	> 100 µM	–	> 100 µM	> 100 µM	> 100 µM	> 100 µM	> 100 µM	> 100 µM	50.4 µM	–	> 100 µM
COC(=O)[C@@H](OC)[C@@H]1Cc2cc3cc(OC4CC(OC5CC(O)C(O)C(C)O5)C(O)C(C)O4)c(C)c(O)c3c(O)c2C(=O)[C@H]1OC1CC(OC2CC(OC3CC(C)(O)C(O)C(C)O3)C(O)C(C)O2)C(O)C(C)O1 (some centres not stated)	> 16.5 µM	> 16.5 µM	> 7.4 µM	0.148 µM	–	> 16.5 µM	0.497 µM	–	0.0484 µM	0.0524 µM	0.035 µM	0.0479 µM	–	0.0302 µM	0.0507 µM	0.0453 µM
Cc1cc2c(=O)[nH]c(N)nc2nc1C	> 100 µM	> 100 µM	> 100 µM	> 100 µM	> 100 µM	> 100 µM	> 100 µM	–	–	–	–	–	–	–	–	–
